According to US7816555B2, “Peroxycarboxylic acid compositions with reduced odor” (Ecolab Inc., priority 2003, dated 2010):

Assay: pH of the mixtures
Assay type: physicochemical
Conditions: mixture at the stated moles of POAA, AA and AO-8
Description: Octyldimethylamine oxide was added to a peracid composition containing 15% peroxyacetic acid, 10% hydrogen peroxide, and about 40-45% acetic acid. The octyldimethylamine oxide was added at different levels, corresponding to differing molar ratios of peroxyacetic acid (POAA) to acetic acid (AA) to octyldimethylamine oxide (AO-8). The mixture was then compared for remaining odor. […] It was surprising that this reduction occurred even at pH too low for ion pair formation between the AO-8 and POAA, i.e. substantially below the 8.2 pKa of POAA.

- mixture results: pH: 7.7
Compound: CCCCCCCC[N+](C)(C)[O-] [AO-8, octyldimethylamine oxide]
